# Laboratory results published in paper PMC12758200, “Inhibition of lysosomal LAMTOR1 increases autophagy by suppressing the MTORC1 pathway to ameliorate lipid accumulations in MAFLD” (Autophagy, 2025).
# What was measured:
# [1] = target: T1, LAMTOR1 (Mus musculus, UniProt Q9CQ22, L22A); assay: DARTS in lysate of transfected HEK293 cells, […] ACA; assay type: cell-based
# T1 construct: MYC-LAMTOR1^L22A
# [2] = target: LAMTOR1 (late endosomal/lysosomal adaptor, MAPK and MTOR activator 1) (Mus musculus, UniProt Q9CQ22); assay: dose-dependent DARTS western blot in 3T3-L1 lysate; CETSA and isothermal dose-response CETSA; assay type: biochemical
# Sequence of LAMTOR1 (late endosomal/lysosomal adaptor, MAPK and MTOR activator 1) (Q9CQ22 2-161): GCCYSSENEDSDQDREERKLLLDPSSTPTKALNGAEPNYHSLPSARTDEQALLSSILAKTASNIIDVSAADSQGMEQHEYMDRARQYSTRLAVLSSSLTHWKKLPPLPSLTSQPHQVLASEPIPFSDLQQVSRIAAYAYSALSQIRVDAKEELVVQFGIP
# T1 sequence (Q9CQ22 2-161 L22A): as the sequence (Q9CQ22 2-161) above, with L21A counted along it
structure (smiles),measurement,setting,value
"COc1ccc(-c2cc(=O)c3c(O)cc(O)cc3o2)cc1 [ACA, 5,7-dihydroxy-4’methoxyflavone]",% increase in stability,[1],35.7 % increase in stability
same,EC50,[2],~44 µM
